Experimental data published in the NIST ThermoML archive (doi:10.1021/je101012n).
± gives the expanded uncertainty stated by the source.

Test: mn = molality of the nth substance listed, in mol/kg
Conditions: 101 kPa, Liquid, Alternating current cell with electrodes

[Cl-].[Li+] [lithium chloride] + O
electrical conductivity [S/m]
Conditions	278.15 K	283.15 K	298.15 K	308.15 K	318.15 K	343.15 K	363.15 K
m1 = 8.5e-05	0.0005986 ± 2.4e-06	0.0006826 ± 2.7e-06	0.0009588 ± 3.8e-06	0.00117 ± 5e-06	0.001388 ± 6e-06	0.001978 ± 8e-06	0.002483 ± 1e-05
m1 = 0.000952	0.006496 ± 2.6e-05	0.007487 ± 3e-05	0.01069 ± 4e-05	0.01311 ± 5e-05	0.01528 ± 6e-05	0.02191 ± 9e-05	0.02774 ± 0.00011
m1 = 0.00845	0.05562 ± 0.00022	0.06414 ± 0.00026	0.09167 ± 0.00037	0.1123 ± 0.0005	0.1315 ± 0.0005	0.1886 ± 0.0008	0.2366 ± 0.0009
m1 = 0.09523	0.5516 ± 0.0022	0.6326 ± 0.0025	0.9019 ± 0.0036	1.099 ± 0.0044	1.276 ± 0.0051	1.809 ± 0.0072	2.257 ± 0.009
m1 = 0.9613	4.317 ± 0.017	4.986 ± 0.02	7.13 ± 0.029	8.35 ± 0.033	9.794 ± 0.039	12.64 ± 0.051	15.57 ± 0.062

O=[N+]([O-])[O-].O=[N+]([O-])[O-].O=[N+]([O-])[O-].[Al+3] [aluminum trinitrate] + O
electrical conductivity [S/m]
Conditions	278.1 K	283.1 K	298.15 K	308.15 K	318.15 K	343.15 K	363.15 K
m1 = 8.8e-05	–	–	–	–	–	0.09049 ± 0.00036	0.1042 ± 0.0004
m1 = 0.000883	0.05671 ± 0.00023	0.06384 ± 0.00026	0.08484 ± 0.00034	0.09898 ± 0.0004	0.1135 ± 0.0005	0.1533 ± 0.0006	0.1872 ± 0.0008
m1 = 0.00871	0.2168 ± 0.0009	0.2457 ± 0.001	0.3424 ± 0.0014	0.411 ± 0.0016	0.4827 ± 0.0019	0.6932 ± 0.0028	0.8941 ± 0.0036
m1 = 0.0881	1.551 ± 0.0062	1.706 ± 0.0068	2.378 ± 0.0095	2.873 ± 0.011	3.387 ± 0.013	4.867 ± 0.019	5.923 ± 0.024
m1 = 0.158	2.511 ± 0.01	2.826 ± 0.011	3.913 ± 0.016	4.788 ± 0.019	5.595 ± 0.022	7.689 ± 0.031	9.698 ± 0.039

[Ba+2].[Cl-].[Cl-] [barium chloride] + O
electrical conductivity [S/m]
Conditions	278.15 K	283.15 K	298.15 K	308.15 K	318.15 K	343.15 K	363.15 K
m1 = 9.2e-05	0.001632 ± 7e-06	0.00188 ± 1e-05	0.002597 ± 1e-05	0.003085 ± 1.2e-05	0.003626 ± 1.5e-05	0.005187 ± 2.1e-05	0.00644 ± 3e-05
m1 = 0.0011	0.01799 ± 7e-05	0.0206 ± 0.0001	0.02897 ± 0.00012	0.03508 ± 0.00014	0.04141 ± 0.00017	0.05911 ± 0.00024	0.07372 ± 0.00029
m1 = 0.00896	0.1386 ± 0.0006	0.1585 ± 0.0006	0.2229 ± 0.0009	0.2681 ± 0.0011	0.3161 ± 0.0013	0.4493 ± 0.0018	0.5593 ± 0.0022
m1 = 0.1029	1.366 ± 0.0055	1.553 ± 0.0062	2.167 ± 0.0087	2.588 ± 0.01	3.034 ± 0.012	4.247 ± 0.017	4.814 ± 0.019
m1 = 0.31	3.657 ± 0.015	4.127 ± 0.017	5.589 ± 0.022	6.794 ± 0.027	7.859 ± 0.031	10.32 ± 0.041	12.51 ± 0.05

Cl [hydrogen chloride] + O
electrical conductivity [S/m]
Conditions	278.15 K	283.15 K	298.15 K	308.15 K	318.15 K	343.15 K	363.15 K
m1 = 0.00011	0.003313 ± 1.3e-05	0.003683 ± 1.5e-05	0.004665 ± 1.9e-05	0.00531 ± 2.1e-05	0.005973 ± 2.4e-05	0.007487 ± 3e-05	0.008461 ± 3.4e-05
m1 = 0.000958	0.028 ± 0.0001	0.03088 ± 0.00012	0.03978 ± 0.00016	0.04565 ± 0.00018	0.05121 ± 0.0002	0.06414 ± 0.00026	0.07325 ± 0.00029
m1 = 0.00937	0.2714 ± 0.0011	0.3001 ± 0.0012	0.3869 ± 0.0015	0.4408 ± 0.0018	0.4932 ± 0.002	0.6227 ± 0.0025	0.7132 ± 0.0029
m1 = 0.09398	2.604 ± 0.01	2.872 ± 0.011	3.684 ± 0.015	4.19 ± 0.017	4.673 ± 0.019	5.872 ± 0.024	6.722 ± 0.027
m1 = 0.4603	11.98 ± 0.048	13.14 ± 0.053	16.69 ± 0.067	18.97 ± 0.076	21.09 ± 0.084	26.23 ± 0.1	29.87 ± 0.12
m1 = 0.85	20.2 ± 0.081	22.06 ± 0.088	27.9 ± 0.11	31.53 ± 0.13	34.95 ± 0.14	43.45 ± 0.17	48.24 ± 0.19
